pIC50: −log10 of the molar value. Where a SMILES comes first, the peptide text is derived from it. [ ]: non-standard residue; d: D form. NMeF = CN[C@@H](Cc1ccccc1)C(=O)O
What was measured:
[1] = Cytotoxicity against human Fa2N-4 cells after 24 hrs by MTT assay; assay type: cell-based; details: Fa2N-4, 24 h
[2] = Inhibition of human voltage-dependent L-type calcium channel subunit alpha1C/alpha2delta/beta2a expressed in C1-6-37-3 cells assessed as inhibition of K+-induced calcium influx incubated for 30 mins prior to K+-induction by Fluo-4-AM based FLIPR assay; assay type: cell-based

Compound	pIC50 [2]	pIC50 [1]
CC[C@H](C)[C@@H]1NC(=O)[C@H](Cc2ccccc2)N(C)C(=O)[C@H](C(C)C)NC(=O)[C@H](Cc2ccccc2)N(C)C1=O (cyclo(I[NMeF]V[NMeF]))	5.15	< 4.70
COc1ccc(CCN(C)CCCC(C#N)(c2ccc(OC)c(OC)c2)C(C)C)cc1OC (centres undefined)	6.05	
CCOC(=O)C1=C(C)NC(C)=C(C(=O)OC)C1c1cccc([N+](=O)[O-])c1 (centres undefined) [NITRENDIPINE]	8.52	
CC[C@H](C)[C@@H]1NC(=O)[C@H](Cc2ccccc2)N(C)C(=O)[C@H]([C@@H](C)CC)NC(=O)[C@H](Cc2ccccc2)N(C)C1=O (cyclo(I[NMeF]I[NMeF]))	5.30	< 4.70

Continued, in another order:

pIC50 [2]	Compound	pIC50 [1]
5.21	CC(C)[C@@H]1NC(=O)[C@H](Cc2ccccc2)N(C)C(=O)[C@H](C(C)C)NC(=O)[C@H](Cc2ccccc2)N(C)C1=O (cyclo([NMeF]V[NMeF]V))	< 4.70
5.66	COc1ccc([C@@H]2Sc3ccccc3N(CCN(C)C)C(=O)[C@@H]2OC(C)=O)cc1 [DILTIAZEM]	
